Data on nine compounds can be found in patent publication US9120804B2, “8-substituted 2-amino-[1,2,4] triazolo [1, 5-A] pyrazines as Syk tryrosine kinase inhibitors and GCN2 serin kinase inhibitors” (Merck Patent GmbH, priority 2012, dated 2015).

The target of test [1] is GCN2 (Homo sapiens, UniProt Q9P2K8). In words: GCN2 enzyme assay. The test is classed as biochemical.
Test [2] concerns the target T1, SYK (Homo sapiens, UniProt P43405).
T1 construct: 2.5 nM SYK, 400 nM Biotin-Aha-Aha-KEDPDYEWPSAKK
As to the kind of experiment: SYK flash plate assay (enzyme assay). The test is classed as biochemical. The method in brief:
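Radiometric Flashplate format: biotinylated peptide substrate (400 nM) and 33P-labelled ATP (10 μM) react with 2.5 nM enzyme for 1 hour at 30 °C in Hepes buffer, pH 7.5. After EDTA quench and washing, counts are taken; staurosporine defines non-specific signal, and IC50 values are derived.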

Chain of GCN2 (Q9P2K8 whole entry): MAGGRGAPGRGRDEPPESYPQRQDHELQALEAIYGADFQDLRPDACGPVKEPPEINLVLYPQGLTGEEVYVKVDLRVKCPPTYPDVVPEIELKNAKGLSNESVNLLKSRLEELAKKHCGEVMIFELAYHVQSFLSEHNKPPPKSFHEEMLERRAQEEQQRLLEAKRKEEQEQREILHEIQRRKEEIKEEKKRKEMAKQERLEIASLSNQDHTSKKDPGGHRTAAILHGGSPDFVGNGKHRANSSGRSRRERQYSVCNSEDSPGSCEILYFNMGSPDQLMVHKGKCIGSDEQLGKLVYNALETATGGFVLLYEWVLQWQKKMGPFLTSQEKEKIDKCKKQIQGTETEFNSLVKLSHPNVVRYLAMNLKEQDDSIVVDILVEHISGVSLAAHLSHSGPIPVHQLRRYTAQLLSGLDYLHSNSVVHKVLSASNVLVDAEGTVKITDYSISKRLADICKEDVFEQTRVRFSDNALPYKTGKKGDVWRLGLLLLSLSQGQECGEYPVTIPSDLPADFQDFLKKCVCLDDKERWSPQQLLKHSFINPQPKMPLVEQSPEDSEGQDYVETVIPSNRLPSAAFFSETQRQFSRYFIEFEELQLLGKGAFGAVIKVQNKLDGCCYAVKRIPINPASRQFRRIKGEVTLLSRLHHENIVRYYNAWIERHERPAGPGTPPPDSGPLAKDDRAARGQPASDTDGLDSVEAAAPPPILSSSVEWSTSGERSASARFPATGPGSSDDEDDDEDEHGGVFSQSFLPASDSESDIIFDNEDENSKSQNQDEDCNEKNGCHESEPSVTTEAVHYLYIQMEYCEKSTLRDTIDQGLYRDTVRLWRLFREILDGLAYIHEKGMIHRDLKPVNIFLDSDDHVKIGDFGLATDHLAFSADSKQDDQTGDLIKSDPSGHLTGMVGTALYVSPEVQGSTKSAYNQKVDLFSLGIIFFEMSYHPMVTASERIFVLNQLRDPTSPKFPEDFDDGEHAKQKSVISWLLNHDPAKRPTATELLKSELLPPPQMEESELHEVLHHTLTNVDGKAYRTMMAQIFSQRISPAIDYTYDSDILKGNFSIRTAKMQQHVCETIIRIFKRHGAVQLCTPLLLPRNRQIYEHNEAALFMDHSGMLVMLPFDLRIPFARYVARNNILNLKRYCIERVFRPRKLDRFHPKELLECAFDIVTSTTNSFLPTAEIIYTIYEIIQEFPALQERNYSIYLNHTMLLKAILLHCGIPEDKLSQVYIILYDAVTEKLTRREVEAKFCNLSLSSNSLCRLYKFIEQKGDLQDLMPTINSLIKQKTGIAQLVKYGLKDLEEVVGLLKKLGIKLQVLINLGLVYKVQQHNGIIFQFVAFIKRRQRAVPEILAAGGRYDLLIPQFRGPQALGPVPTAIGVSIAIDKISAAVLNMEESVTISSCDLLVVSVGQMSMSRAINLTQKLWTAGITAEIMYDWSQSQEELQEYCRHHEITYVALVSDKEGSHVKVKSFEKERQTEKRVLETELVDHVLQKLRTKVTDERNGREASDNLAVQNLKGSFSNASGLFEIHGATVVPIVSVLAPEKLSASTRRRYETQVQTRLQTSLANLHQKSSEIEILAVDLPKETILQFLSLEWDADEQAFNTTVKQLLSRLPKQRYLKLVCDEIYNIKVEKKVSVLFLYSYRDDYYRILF

In general, IC50 refers to the midpoint of a concentration-inhibition curve. Read a low IC50 as inhibition by little substance. With `Cn1cc(-c2nccn3nc(Nc4ccc5c(c4)NC(=O)OC5(C)C)nc23)cn1` [C114, 4,4-dimethyl-7-[8-(1-methyl-1H-pyrazol-4-yl)-[1,2,4]triazolo[1,5-a]pyrazin-2-ylamino]-1,4-dihydro-benzo[d][1,3]oxazin-2-one], the figures for the IC50 in test [1] and in test [2] were 0.3 to 3 µM and less than 0.1 µM, respectively.

As to `Cn1cc(-c2nccn3nc(Nc4ccc5c(c4)CS(=O)(=O)N5)nc23)cn1` [C115, (2,2-dioxo-2,3-dihydro-1H-2I6-benzo[c]isothiazol-5-yl)-[8-(1-methyl-1H-pyrazol-4-yl)-[1,2,4]triazolo[1,5-a]pyrazin-2-yl]-amine], the IC50 in test [1] was 3 to 50 µM; in test [2] it was 0.1 to 0.3 µM.

Take `CN1c2ccc(Nc3nc4c(-c5cnn(C)c5)nccn4n3)cc2CS1(=O)=O` [C117, (1-methyl-2,2-dioxo-2,3-dihydro-1H-2I6-benzo[c]isothiazol-5-yl)-[8-(1-methyl-1H-pyrazol-4-yl)-[1,2,4]triazolo[1,5-a]pyrazin-2-yl]-amine]: the concentration for half-maximal inhibition (IC50) in test [1] is 0.3 to 3 µM; in test [2] it was 0.1 to 0.3 µM.

`CC1(C)OC(=O)Nc2cc(Nc3nc4c(N5CCC6(C5)NC(=O)NC6=O)nccn4n3)ccc21` (stereo not drawn) [C118, 7-[2-(4,4-dimethyl-2-oxo-1,4-dihydro-2H-benzo[d][1,3]oxazin-7-ylamino)-[1,2,4]triazolo[1,5-a]pyrazin-8-yl]-1,3,7-triaza-spiro[4.4]nonane-2,4-dione]: the results for the IC50 in test [1] and in test [2] were 3 to 50 µM and less than 0.1 µM, respectively.

Turning to `CC(C)C1(C(C)C)OC(=O)Nc2cc(Nc3nc4c(-c5cnn(C)c5)nccn4n3)ccc21` [C119, 4,4-diisopropyl-7-[8-(1-methyl-1H-pyrazol-4-yl)-[1,2,4]triazolo[1,5-a]pyrazin-2-ylamino]-1,4-dihydro-benzo[d][1,3]oxazin-2-one], the figures for the 50% inhibitory concentration (IC50) in test [1] and in test [2] were 3 to 50 µM and 0.1 to 0.3 µM, respectively.

For the compound `CC1(C)OC(=O)Nc2cc(Nc3nc4c(-c5cccc6[nH]ncc56)nccn4n3)ccc21` [C120, 7-[8-(1H-indazol-4-yl)-[1,2,4]triazolo[1,5-a]pyrazin-2-ylamino]-4,4-dimethyl-1,4-dihydro-benzo[d][1,3]oxazin-2-one], the IC50 in test [1] is 0.3 to 3 µM; in test [2], less than 0.1 µM.

Turning to `CC(C)C(O)(c1n[nH]c2cc(Nc3nc4c(-c5cnn(C)c5)nccn4n3)ccc12)C(C)C` [C141, 2,4-dimethyl-3-{6-[8-(1-methyl-1H-pyrazol-4-yl)-[1,2,4]triazolo[1,5-a]pyrazin-2-ylamino]-1H-indazol-3-yl}-pentan-3-ol], the 50% inhibitory concentration (IC50) is 0.3 to 3 µM in test [1] and less than 0.1 µM in test [2].

With `CC(C)C(O)c1n[nH]c2cc(Nc3nc4c(-c5cnn(C)c5)nccn4n3)ccc12` (stereo not drawn) [C142, 2-methyl-1-{6-[8-(1-methyl-1H-pyrazol-4-yl)-[1,2,4]triazolo[1,5-a]pyrazin-2-ylamino]-1H-indazol-3-yl}-propan-1-ol], the half-maximal inhibitory concentration (IC50) in test [1] was in the range of 0.3 to 3 µM; in test [2], 0.1 to 0.3 µM.

Consider `Cn1cc(-c2nccn3nc(Nc4ccc5c(c4)NC(=O)CC5(C)C)nc23)cn1` [C144, 4,4-dimethyl-7-[8-(1-methyl-1H-pyrazol-4-yl)-[1,2,4]triazolo[1,5-a]pyrazin-2-ylamino]-3,4-dihydro-1H-quinolin-2-one], for which the IC50 in test [1] was 0.3 to 3 µM; in test [2], less than 0.1 µM.
